Measured values taken from patent US20220273813A1, “PHOTOSENSITIZER-CONJUGATED ANTIMICROBIAL CELLULOSE NANOCRYSTALS AND METHODS OF SYNTHESIZING AND USING SAME” (HNU MATERIALS INC., priority 2019, published 2022).

Experiments:
E. coli (ATCC25922) = assay: Photobactericidal activity, CFU count, E. coli; conditions: 20 min ambient light (LED); concentration matched to absorption of 8 mg/L CNC-AA
Experimental: In the experimental set-up, the viability of bacteria as a response to intensity of white light exposure and concentration of disinfectant was monitored. This was carried out by calculating the number of bacterial colonies present in solution before and after exposure.
According to the experimental protocol, a suspension of cells (2.6×10^8 cells/ml ±0.5 log) was treated with either AA, CNC or CNC+AA or CNC-AA or PBS (untreated control) at different concentration (FIGS. 7-9). For each set of conditions, the initial culture was equally divided into two. One part was light treated while the other was kept in the dark. After different time periods (FIGS. 7-9), bactericidal activity was quantified by counting colony forming units (CFU) on agar plates. […] Comparison of the number of CFUs in the treated samples (AA, CNC, CNC+AA and CNC-AA) to untreated (PBS) placed under light, enabled the inventors to quantify the specific photo-bactericidal activity of the test agents. Killing effect was calculated using the following expression (equation 2).
Killing=Log 10(#CFUUntreated)−Log 10(CFUtreated) (2)

P. aeruginosa biofilms = system: P. aeruginosa biofilms; design: dose or concentration left out as unconfirmed; conditions: combined with laser irradiation at specific wavelengths; cited from earlier work

For `CN(C)c1ccc2nc3ccc(N)cc3[s+]c2c1.[Cl-]` [AA, azure A], which “toxicity against E. coli” value (E. coli (ATCC25922)) is on record?
The value was “significantly reduced compared to CNC-AA”.

For `CN(C)c1ccc2nc3ccc(=[N+](C)C)cc-3sc2c1` [methylene blue], which “concentration necessary to eradicate P. aeruginosa biofilms” value (P. aeruginosa biofilms) is on record?
The value was 0.01 % wt/wt.
